{"source": "paper PMC12203428", "about": "“Discovery of Clonixeril as a Sub-Femtomolar Modulator of the Human STING Receptor” (ACS Central Science, 2025)", "key": {"[1]": {"tested_on": "hSTING WT pathway (THP1 Dual KI-hSTING-R232 cells, IRF3 luciferase reporter)", "test": "THP-1 IRF3 luciferase inhibition assay with diABZI3 as activator", "assay_type": "cell-based, human", "text": "To validate our initial observations that CXL has extraordinary potency for a small molecule antagonist, we extended our THP-1 cell luciferase reporter experiment by using diABZI3 as an agonist and using BBCl-amidine (a previously reported STING antagonist) as an antagonist control. , Furthermore, because the results were so unprecedented, we conducted these experiments in a different laboratory (U. Mass Chan. vs Univ. So. FL) and with different individuals performing the experiments.\nThe cells were grown in RPMI 1640, 2 mM L-glutamine, 25 mM HEPES, 10% heat-inactivated fetal bovine serum, 100 μg/mL Normocin, and Pen-Strep (100 U/mL–100 μg/ mL). For selection, the cells were passaged with and without the addition of antibiotics (10 μg/mL Blasticidin and 100 μg/mL Zeocin) to the growth medium every other passage. […] The cells were counted in a cell counter to obtain a cell density of 1 × 10^6 cells/mL of the test media. […] QUANTI-Luc (InvivoGen) reagent was then diluted in 30 mL of water, 75 μL was added to each well, and luminescence was read immediately (PerkinElmer Envision 2105). The data were normalized to the DMSO only controls (without diABZI3 or 2′,3′-cGAMP), and percentage activation was calculated based on the diABZI3 or 2′,3′-cGAMP only control. […]"}, "[2]": {"tested_on": "p-hSTING puncta in HEK293 cells", "test": "HEK293 immunofluorescence of p-hSTING", "assay_type": "cell-based, human", "description": "STING undergoes condensed cis-oligomerization as part of its signal transduction pathway and punctate structure formation of p-hSTING in the perinuclear region is indicative of hSTING oligomerization. We had speculated that CXL might affect hSTING oligomerization. […] HEK293 cells were treated with either 10 aM or 1 pM CXL for 1 h followed by 2 μM 2′,3′-cGAMP for 90 min. Cells treated with vehicle control for 1 h and then 2 μM of 2′,3′-cGAMP for 90 min were used as a positive control. At a 1 pM concentration of CXL, both p-hSTING and punctate structure formation were diminished.\nHEK293 cells were seeded into four-chambered slides (5,000 cells/well.) 36 h later, sample 1 was first treated with vehicle control for 1 h and then transfected with 2 μM 2′,3′-cGAMP (InvivoGen) using Escort IV transfection reagent (Sigma Aldrich) for 1 h and 30 min. Samples 2 and 3 were first transfected with 10 aM and 1 pM CXL, respectively, for 1 h, followed by 2 μM 2′,3′-cGAMP for 1 h and 30 min. […] DMSO concentration was kept constant across all treatment groups. Cells were fixed with 4% paraformaldehyde for 15 min and immunostained with p-STING antibody at 4 °C overnight with light agitation. The slides were incubated with Alexa 594 rabbit secondary antibody for 1 h at RT. Subsequently, the slides were stained with Phalloidin conjugated to FITC (488) for 30 min at RT, mounted with solution containing 4′,6′-diamidino-2-phenylindole (DAPI) and imaged on a Fluorescent Microscope."}, "SUMO-hSTING CTD": {"biological_target": "SUMO-hSTING CTD (Homo sapiens, UniProt Q86WV6, H232R)", "sequence (Q86WV6 155-343 H232R)": "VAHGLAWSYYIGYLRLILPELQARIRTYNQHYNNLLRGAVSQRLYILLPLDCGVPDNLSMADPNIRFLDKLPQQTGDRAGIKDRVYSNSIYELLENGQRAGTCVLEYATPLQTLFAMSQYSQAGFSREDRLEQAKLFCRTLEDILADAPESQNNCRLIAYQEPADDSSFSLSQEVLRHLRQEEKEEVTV", "test": "Isothermal titration calorimetry", "assay_type": "binding", "design": "human STING (amino acid 155–343) was synthesized and subcloned into pET28a vector; made in house; host or cells: E. coli BL21(DE3)", "text": "In order to further explore the interaction between CXL and hSTING CTD, we employed Isothermal calorimetry (ITC) to measure the heat evolved accompanying CXL’s effect on SUMO-hSTING^WT CTD. […] In Figure A, we show the ITC data we obtained. […]. […] In Figure B, we also find that the binding isotherm is far from steady state or equilibrium, and thus, we could not obtain reliable thermodynamic parameters. Nonetheless, a significant amount of heat was released in the process of CXL interacting with the hSTING CTD. On the other hand, we were most interested in ITC measurements taken at femtomolar concentrations, given the biophysical experiments and in cellulo studies already described. Initial experiments treating the hSTING CTD with femtomolar concentrations of CXL were unsuccessful, likely due to the insensitivity of the instrument. […]. MicroCal ITC200 instrument (Malvern Pananalytical) was used to assess STING and CXL interactions. Both recombinantly purified STING domains (residues 155–343) containing a SUMO tag and CXL were buffer-exchanged and made in the same buffer composition, respectively, to avoid buffer mismatch. The same buffer cocktail was used in all ITC experiments, containing 25 mM HEPES (pH, 7.4), 150 mM NaCl, 5% glycerol, 0.5 mM TCEP, and 5% DMSO. STING protein from −80 °C aliquots was spun down at 12,000 RPM for 5–10 min before each run to remove any aggregates, diluted into the ITC buffer above (either as 40 μM STING alone or as 40 μM STING plus 20 μM 2,3-cGAMP), and loaded into the cell. CXL at various concentrations for different experiments was loaded into the syringe (Hamilton). For the control and reference, an ITC buffer devoid of CXL was used. ITC experiments were conducted at 25 °C using an initial 0.4 μL injection and 19 subsequent injections of 2 μL each at 150 s intervals. Heat of dilution (differential power) of the 19 injections resulting from the binding event was fitted into the nonlinear least-squares equation incorporated in the MicroCal ITC200 analysis software. The K D and other thermodynamic parameters were derived from curve fitting using MicroCal software."}}, "data": [{"smiles": "Cc1c(Cl)cccc1Nc1ncccc1C(=O)OCC(O)CO", "note": "(stereo not drawn) [CXL, clonixeril]", "values": [{"measurement": "Response to diABZI3 with CXL 100 nM to 100 aM", "setting": "[1]; 50 nM diABZI3", "value": "inverse dose response"}, {"measurement": "Effect of higher concentrations of CXL on diABZI3 signal", "setting": "[1]; 50 nM diABZI3, Figure 2C", "value": "enhancement of the diABZI3 signal"}, {"measurement": "p-hSTING and punctate structure formation", "setting": "[2]; 1 pM CXL 1 h, then 2 μM 2′,3′-cGAMP 90 min", "value": "diminished"}, {"measurement": "2′,3′-cGAMP induced p-hSTING puncta formation in the perinuclear region", "setting": "[2]; 10 aM CXL", "value": "may affect"}, {"measurement": "Levels of hSTING phosphorylation", "setting": "[2]; 10 aM CXL", "value": "qualitatively unaffected"}, {"measurement": "Heat produced", "setting": "SUMO-hSTING CTD; 400 μM CXL into 40 μM hSTING CTD", "value": "essentially the same amount of heat as c-diGMP"}, {"measurement": "Heat released per injection", "setting": "SUMO-hSTING CTD; 400 μM clonixeril + 20 μM 2′,3′-cGAMP, reviewer's reading of Fig 6C", "value": 13, "unit": "kcal/mol"}, {"measurement": "Heat evolution", "setting": "SUMO-hSTING CTD; 1.5 fM CXL into 40 μM SUMO-hSTING CTD + 20 μM 2′,3′-cGAMP", "value": "significant evolution of heat"}, {"measurement": "Heat released per injection", "setting": "SUMO-hSTING CTD; 1.5 fM clonixeril into 40 μM hSTING CTD + 20 μM 2′,3′-cGAMP, first 15 injections", "value": "-7 to -2", "unit": "kcal/mol"}]}]}
